Experimental data as given in the supplement of paper PMC10307832.

Assays:
Assay in all cases: relative viability (nuclei count vs DMSO), 5 days (fraction); higher = more cells survive
HOP-62 = test system: HOP-62
Method in brief: (§1)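 A single step with final 0.05% Triton X-100, 1% formaldehyde and 1 ug/ml Hoechst fixed the cells and stained nuclei 5 days after treatment. Lung cancer cell lines in 1536-well plates had been treated by pin tool the day after seeding with one drug alone or a fixed anchor-drug dose plus five library-drug doses (not always all listed) in √10 steps, and nuclei were counted on 4× images. Relative viability is the ratio of nuclei in treated wells to nuclei in vehicle wells, taken as the median of duplicate plates.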

LXF-289 = test system: LXF-289
Method in brief: as §1

LC-2-ad = test system: LC-2-ad
Method in brief: as §1

NCI-H2342 = test system: NCI-H2342
Method in brief: as §1

HCC-78 = test system: HCC-78
Method in brief: as §1

NCI-H1755 = test system: NCI-H1755
Method in brief: as §1

HCC-15 = test system: HCC-15
Method in brief: as §1

RERF-LC-KJ = test system: RERF-LC-KJ
Method in brief: as §1

NCI-H1975 = test system: NCI-H1975
Method in brief: as §1

NCI-H2126 = test system: NCI-H2126
Method in brief: as §1

A-427 = test system: A-427
Method in brief: as §1

SK-LU-1 = test system: SK-LU-1
Method in brief: as §1

NCI-H1915 = test system: NCI-H1915
Method in brief: as §1

NCI-H358 = test system: NCI-H358
Method in brief: as §1

SW 1573 = test system: SW 1573
Method in brief: as §1

NCI-H2228 = test system: NCI-H2228
Method in brief: as §1

NCI-H1734 = test system: NCI-H1734
Method in brief: as §1

NCI-H1792 = test system: NCI-H1792
Method in brief: as §1

PC-3 [JPC-3] = test system: PC-3 [JPC-3]
Method in brief: as §1

NCI-H647 = test system: NCI-H647
Method in brief: as §1

NCI-H522 = test system: NCI-H522
Method in brief: as §1

NCI-H2347 = test system: NCI-H2347
Method in brief: as §1

`COc1cc2nccc(Oc3ccc(NC(=O)Nc4cc(C)on4)c(Cl)c3)c2cc1OC` [Tivozanib] + N=C(N)NC(=N)NCCc1ccccc1 [Phenformin] (partner 250 µM) was tested, and the relative viability (HOP-62; first compound 0.005 µM) was 0.611, the relative viability (HOP-62; first compound 0.01581 µM) was 0.626 and the relative viability (HOP-62; first compound 0.05 µM) was 0.66. The relative viability (HOP-62; first compound 0.1581 µM) was 0.704, the relative viability (HOP-62; first compound 0.5 µM) was 0.714 and the relative viability (LXF-289; first compound 0.005 µM) was 0.532. For the same compound, the relative viability (LXF-289; first compound 0.01581 µM) was 0.506, the relative viability (LXF-289; first compound 0.05 µM) was 0.514 and the relative viability (LXF-289; first compound 0.1581 µM) was 0.561. For the same compound, the relative viability (LXF-289; first compound 0.5 µM) was 0.418, the relative viability (LC-2-ad; first compound 0.005 µM) was 0.593 and the relative viability (LC-2-ad; first compound 0.01581 µM) was 0.548. For the same compound, the relative viability (LC-2-ad; first compound 0.05 µM) was 0.579, the relative viability (LC-2-ad; first compound 0.1581 µM) was 0.514 and the relative viability (LC-2-ad; first compound 0.5 µM) was 0.387. It also gave a relative viability (NCI-H2342; first compound 0.005 µM) of 0.554, a relative viability (NCI-H2342; first compound 0.01581 µM) of 0.585 and a relative viability (NCI-H2342; first compound 0.05 µM) of 0.59. The relative viability (NCI-H2342; first compound 0.5 µM) was 0.632, the relative viability (HCC-78; first compound 0.005 µM) was 0.619 and the relative viability (HCC-78; first compound 0.01581 µM) was 0.658. The relative viability (HCC-78; first compound 0.05 µM) was 0.85, the relative viability (HCC-78; first compound 0.1581 µM) was 0.529 and the relative viability (HCC-78; first compound 0.5 µM) was 0.655. It also gave a relative viability (NCI-H1755; first compound 0.005 µM) of 0.585, a relative viability (NCI-H1755; first compound 0.01581 µM) of 0.605 and a relative viability (NCI-H1755; first compound 0.05 µM) of 0.631. For the same compound, the relative viability (NCI-H1755; first compound 0.1581 µM) was 0.644, the relative viability (NCI-H1755; first compound 0.5 µM) was 0.459 and the relative viability (HCC-15; first compound 0.005 µM) was 0.421. The relative viability (HCC-15; first compound 0.01581 µM) was 0.476, the relative viability (HCC-15; first compound 0.05 µM) was 0.5 and the relative viability (HCC-15; first compound 0.1581 µM) was 0.581. The relative viability (HCC-15; first compound 0.5 µM) was 0.426, the relative viability (RERF-LC-KJ; first compound 0.005 µM) was 0.402 and the relative viability (RERF-LC-KJ; first compound 0.01581 µM) was 0.375. The relative viability (RERF-LC-KJ; first compound 0.05 µM) was 0.468, the relative viability (RERF-LC-KJ; first compound 0.1581 µM) was 0.411 and the relative viability (RERF-LC-KJ; first compound 0.5 µM) was 0.382. It also gave a relative viability (NCI-H1975; first compound 0.005 µM) of 0.398, a relative viability (NCI-H1975; first compound 0.01581 µM) of 0.429 and a relative viability (NCI-H1975; first compound 0.05 µM) of 0.397. The relative viability (NCI-H1975; first compound 0.1581 µM) was 0.423, the relative viability (NCI-H1975; first compound 0.5 µM) was 0.395 and the relative viability (NCI-H2126; first compound 0.005 µM) was 0.486. It also gave a relative viability (NCI-H2126; first compound 0.01581 µM) of 0.546, a relative viability (NCI-H2126; first compound 0.05 µM) of 0.553 and a relative viability (NCI-H2126; first compound 0.1581 µM) of 0.516. For the same compound, the relative viability (NCI-H2126; first compound 0.5 µM) was 0.528, the relative viability (A-427; first compound 0.005 µM) was 0.337 and the relative viability (A-427; first compound 0.01581 µM) was 0.308. For the same compound, the relative viability (A-427; first compound 0.05 µM) was 0.363, the relative viability (A-427; first compound 0.1581 µM) was 0.315 and the relative viability (A-427; first compound 0.5 µM) was 0.241. The relative viability (SK-LU-1; first compound 0.005 µM) was 0.58, the relative viability (SK-LU-1; first compound 0.01581 µM) was 0.549 and the relative viability (SK-LU-1; first compound 0.05 µM) was 0.629. It also gave a relative viability (SK-LU-1; first compound 0.1581 µM) of 0.376, a relative viability (SK-LU-1; first compound 0.5 µM) of 0.532 and a relative viability (NCI-H1915; first compound 0.005 µM) of 0.365. The relative viability (NCI-H1915; first compound 0.01581 µM) was 0.388, the relative viability (NCI-H1915; first compound 0.05 µM) was 0.317 and the relative viability (NCI-H1915; first compound 0.1581 µM) was 0.373. It also gave a relative viability (NCI-H1915; first compound 0.5 µM) of 0.309, a relative viability (NCI-H358; first compound 0.005 µM) of 0.306 and a relative viability (NCI-H358; first compound 0.01581 µM) of 0.265. It also gave a relative viability (NCI-H358; first compound 0.05 µM) of 0.411, a relative viability (NCI-H358; first compound 0.1581 µM) of 0.301 and a relative viability (NCI-H358; first compound 0.5 µM) of 0.447. For the same compound, the relative viability (SW 1573; first compound 0.005 µM) was 0.361, the relative viability (SW 1573; first compound 0.01581 µM) was 0.362 and the relative viability (SW 1573; first compound 0.05 µM) was 0.369. For the same compound, the relative viability (SW 1573; first compound 0.1581 µM) was 0.306, the relative viability (SW 1573; first compound 0.5 µM) was 0.386 and the relative viability (NCI-H2228; first compound 0.005 µM) was 0.306. It also gave a relative viability (NCI-H2228; first compound 0.01581 µM) of 0.283, a relative viability (NCI-H2228; first compound 0.05 µM) of 0.325 and a relative viability (NCI-H2228; first compound 0.1581 µM) of 0.288. It also gave a relative viability (NCI-H2228; first compound 0.5 µM) of 0.406, a relative viability (NCI-H1734; first compound 0.005 µM) of 0.343 and a relative viability (NCI-H1734; first compound 0.01581 µM) of 0.365. The relative viability (NCI-H1734; first compound 0.05 µM) was 0.371, the relative viability (NCI-H1734; first compound 0.1581 µM) was 0.362 and the relative viability (NCI-H1734; first compound 0.5 µM) was 0.383. The relative viability (NCI-H1792; first compound 0.005 µM) was 0.316, the relative viability (NCI-H1792; first compound 0.01581 µM) was 0.394 and the relative viability (NCI-H1792; first compound 0.05 µM) was 0.361. For the same compound, the relative viability (NCI-H1792; first compound 0.5 µM) was 0.388, the relative viability (PC-3 [JPC-3]; first compound 0.005 µM) was 0.477 and the relative viability (PC-3 [JPC-3]; first compound 0.01581 µM) was 0.468. For the same compound, the relative viability (PC-3 [JPC-3]; first compound 0.05 µM) was 0.516, the relative viability (PC-3 [JPC-3]; first compound 0.1581 µM) was 0.427 and the relative viability (PC-3 [JPC-3]; first compound 0.5 µM) was 0.481. For the same compound, the relative viability (NCI-H647; first compound 0.005 µM) was 0.538, the relative viability (NCI-H647; first compound 0.01581 µM) was 0.457 and the relative viability (NCI-H647; first compound 0.05 µM) was 0.473. For the same compound, the relative viability (NCI-H647; first compound 0.1581 µM) was 0.469, the relative viability (NCI-H647; first compound 0.5 µM) was 0.497 and the relative viability (NCI-H522; first compound 0.005 µM) was 0.595. The relative viability (NCI-H522; first compound 0.01581 µM) was 0.73, the relative viability (NCI-H522; first compound 0.05 µM) was 0.593 and the relative viability (NCI-H522; first compound 0.1581 µM) was 0.619. The relative viability (NCI-H522; first compound 0.5 µM) was 0.705, the relative viability (NCI-H2347; first compound 0.01581 µM) was 0.484 and the relative viability (NCI-H2347; first compound 0.05 µM) was 0.512. For the same compound, the relative viability (NCI-H2347; first compound 0.5 µM) was 0.438.
